Data published in the OPERA property sets (Mansouri et al. 2018).
Where a SMILES comes first, the peptide text is derived from it. [ ]: non-standard residue; d: D form. Orn = NCCC[CH](N)C(=O)O

First: CCCCN1C(=O)NC(=O)C(=O)C1=O
Second: O=C1NC(=O)N(Cc2ccccc2)C(=O)C1=O
The logP of the first is lower: 0.81 for the first, 1.02 for the second.

Going from Clc1ccc(Cl)c(-c2c(Cl)c(Cl)c(Cl)c(Cl)c2Cl)c1 to Clc1cccc(-c2c(Cl)c(Cl)cc(Cl)c2Cl)c1Cl, the logP falls from 7.93 to 7.25.

First: O=[N+]([O-])N=C1NCCN1Cc1cccnc1
Second: O=[N+]([O-])C=C1NCCN1Cc1cccnc1
The logP of the first is higher: -0.19 for the first, -1.02 for the second.

Going from Cn1c([N+](=O)[O-])cnc1Cc1ccc(C(N)=O)cc1 to Cc1ccc(NC(=O)c2[nH]nc(C)c2[N+](=O)[O-])cc1, the logP rises from 0.55 to 2.34.

Going from COC(O)Cn1c([N+](=O)[O-])nc(Br)c1Br (centres undefined) to COCC(O)Cn1cc([N+](=O)[O-])nn1 (centres undefined), the logP falls from 1.02 to -0.36.

Compared with Cc1ccc(-n2ccc(=O)c(O)c2C)cc1, CCC(=O)C(CS(=O)(=O)c1ccc(C)cc1)c1ccc(C)cc1 (centres undefined) is higher in logP: 1.72 for the first, 3.3 for the second.

Going from C1CCC2=NCCCN2CC1 to CC1=NCCC1, the logP rises from 1.38 to 1.87.

Compared with CCc1ccc(OCc2ccccc2CCCN2CCC(O)CC2)cc1, CCOc1cccc(OCc2ccccc2CCCN2CCC(O)CC2)c1 is lower in logP: 3.75 for the first, 3.5 for the second.

Compared with CC(C)CN1C(=O)C(=O)c2ccccc2C1=O, CCN1C(=O)C(=O)c2ccc(OC)cc2C1=O is lower in logP: 2.08 for the first, 1.49 for the second.

Going from O=C(CCCN1CCC(C(O)(c2ccccc2)c2ccccc2)CC1)c1ccccc1 to c1ccc(SCc2ccccc2CCCN2CCOCC2)cc1, the logP falls from 4.42 to 3.8.

First: O=C(NC(CO)C(O)c1ccc(-c2ccccn2)cc1)C(F)(F)F (centres undefined)
Second: CC(=NNC(=S)NNC(=S)Nc1ccccc1Cl)c1ccccn1
The logP of the first is lower: 1.31 for the first, 2.67 for the second.

Going from c1ccc2c(c1)Cc1ccccc1S2 to CCC(=O)c1ccc2c(c1)N(CC(C)N(C)C)c1ccccc1S2 (centres undefined), the logP rises from 3.86 to 4.79.

CN1CC(O)N(c2nnc(C(C)(C)C)s2)C1=O (centres undefined) and Cc1nnc(SCC2=C(C(=O)OCOC(=O)C(C)(C)C)N3C(=O)C(NC(=O)Cn4cnnn4)C3SC2)s1 (centres undefined) are within 0.2 log units of each other in logP: 1.49 for the first, 1.34 for the second.

Compared with Nc1ccc2c(c1)C(=O)N(O)C2=O, Cc1ccc2c(=O)[nH]c(=O)[nH]c2c1 is higher in logP: 0.16 for the first, 0.55 for the second.

Going from c1ccc(-c2nnn[nH]2)cc1 to S=C=NCCCc1ccccc1, the logP rises from 1.65 to 3.8.

Compared with CCCCNC(=O)CNC(=O)C=[N+]=[N-], CCCCOC(=O)C(C(=O)OCCCC)=C1SCCS1 is higher in logP: 0.37 for the first, 4.6 for the second.

Compared with Nc1nc(Cl)nc2c1ncn2C1OC(CO)C(O)C1O (centres undefined), OCC1CC(F)C(n2cnc3c(I)ncnc32)O1 (centres undefined) is higher in logP: -0.37 for the first, 0.63 for the second.

Going from Cc1n[nH]c(C(=O)NC2CCCCC2)c1[N+](=O)[O-] to O=[N+]([O-])c1nccn1CCN1CCCCC1, the logP falls from 1.71 to 0.36.

First: CSC(SC)=C(C(=O)OC(C)C)C(=O)OC(C)C
Second: CC(C)CC(C)CC(C)OC(=O)c1ccc(NC(=O)N(C)C)cc1Cl (centres undefined)
The logP of the first is lower: 3.38 for the first, 5.15 for the second.

Compared with CC(O)COc1ccccc1 (centres undefined), CC(O)COc1ccc(Cl)cc1 (centres undefined) is higher in logP: 1.61 for the first, 2.41 for the second.

Going from COc1ccc(OCCO)cc1 to OCCOc1ccccc1Cl, the logP rises from 1.13 to 1.81.

First: COc1cc(Cc2cnc(N)nc2N)cc(Br)c1OC
Second: C=C(C)c1c(OC)cc(Cc2cnc(N)nc2N)cc1OCC
The logP of the first is lower: 2.23 for the first, 2.65 for the second.

CCN1C(=O)C(=O)c2c(cccc2[N+](=O)[O-])C1=O and CCN1C(=O)C(=O)c2c(OC)cccc2C1=O are within 0.2 log units of each other in logP: 0.82 for the first, 0.9 for the second.

Going from CN(CCCn1ccnc1C=NO)S(=O)(=O)C(F)(F)F to CCOC(=O)C(CC)C(CO)Cc1cncn1C (centres undefined), the logP falls from 1.77 to 0.73.

First: CC(=O)OCN1C(=O)C2=C(CCCC2)C1=O
Second: CCCCOC(=O)n1cc(F)c(=O)[nH]c1=O
The logP of the first is higher: 1.15 for the first, 0.89 for the second.

Compared with Clc1ccc(Oc2nc(C(Cl)(Cl)Cl)nc(C(Cl)(Cl)Cl)n2)cc1, Nc1ccc(Oc2ccc(N)cc2)cc1 is lower in logP: 5.67 for the first, 1.36 for the second.

Going from CCC1(CC)OCC(c2ccc(NC(=O)N(C)C)cc2C)CO1 to CCc1cccc(NC(=O)Cc2ccccc2)c1, the logP rises from 2.76 to 3.47.

Compared with CC1CN(c2cc3c(cc2F)c(=O)c(C(=O)O)cn3-c2ccc(F)cc2F)CCN1 (centres undefined), Cc1nc2sccn2c(=O)c1CCN1CCC(=C(c2ccc(F)cc2)c2ccc(F)cc2)CC1 is higher in logP: -0.2 for the first, 5.2 for the second.

CC1CCCC(C)C1NC(=O)N(CCCl)N=O (centres undefined) and CC(C)NC(=O)C1(O)C(C)CC2C3CCC4=CC(=O)C=CC4(C)C3(F)C(O)CC21C (centres undefined) are within 0.2 log units of each other in logP: 2.57 for the first, 2.43 for the second.

First: C#CCOc1c(Cl)cc(NC=NOCOCC)cc1Cl
Second: C#CCOc1c(Cl)cc(NC=NOCOC)cc1Cl
The logP of the first is higher: 3.5 for the first, 3.2 for the second.

COC1=C(C)C(=O)c2c(c(COC(N)=O)c3n2CCC3OC(C)=O)C1=O (centres undefined) and CN(C)CCn1nnnc1SCC1=C(C(=O)OCOC(=O)C(C)(C)C)N2C(=O)C(NC(=O)Cc3csc(N)n3)C2SC1 (centres undefined) are within 0.2 log units of each other in logP: 1.54 for the first, 1.57 for the second.

CC1CSC2C(NC(=O)C(O)c3ccccc3)C(=O)N2C1C(=O)O (centres undefined) and CSCCC(NC(C)=O)C(=O)NC(Cc1ccccc1)C(N)=O (centres undefined) are within 0.2 log units of each other in logP: 0.47 for the first, 0.42 for the second.

Going from O=[N+]([O-])C=C1NCCN1Cc1ccccn1 to O=[N+]([O-])C=C1NCCN1Cc1ccc(Cl)nc1, the logP rises from -0.87 to -0.19.

Going from CN1CCC(=C2c3ccccc3CCc3cccnc32)CC1 to CN1C(=O)CN=C(c2ccccc2Cl)c2cc([N+](=O)[O-])ccc21, the logP falls from 3.59 to 2.56.

First: O=C(O)CCC(S)CCS (centres undefined)
Second: CCOC(=O)CCC(C)n1nc2ccccc2n1 (centres undefined)
The logP of the first is lower: 1.4 for the first, 3.05 for the second.

Compared with O=[N+]([O-])c1ccc2c(O)cccc2c1, O=C(O)c1ccc([N+](=O)[O-])c(O)c1 is lower in logP: 3.5 for the first, 1.98 for the second.

CCC(C)C(NC(=O)C(CC(=O)O)NC(C)=O)C(=O)NC(Cc1ccccc1)C(N)=O (centres undefined) and CC(=O)NC(CCCCN)C(=O)NC(Cc1ccccc1)C(=O)NC(C(N)=O)C(C)C (centres undefined) are within 0.2 log units of each other in logP: 0.61 for the first, 0.51 for the second.

Clc1cc2oc3c(Cl)cc(Cl)c(Cl)c3c2cc1Cl and Clc1cc(Cl)c2oc3c(Cl)cc(Cl)c(Cl)c3c2c1 are within 0.2 log units of each other in logP: 6.26 for the first, 6.34 for the second.

Compared with CCC(C)NC(=O)C(Br)=Cc1ccccc1 (centres undefined), C=CCC1CN(C)CCC1(OC(=O)CC)c1ccccc1 (centres undefined) is higher in logP: 2.66 for the first, 2.97 for the second.

CCCc1ccc(OCC(C)O)c2c(=O)cc(C(=O)O)oc12 (centres undefined) and COc1ccc2c(C)cc(=O)n3c(C)cc1c23 are within 0.2 log units of each other in logP: 3 for the first, 2.84 for the second.

First: CCN(CC)CCSC(=NO)c1nc(C)no1
Second: CCN(CC)C(=O)N(C)SN(C)C(=O)ON=C(C)SC
The logP of the first is lower: 0.71 for the first, 3.2 for the second.

First: Cc1cccc(Cl)c1Cl
Second: Oc1cccc(Cl)n1
The logP of the first is higher: 3.96 for the first, 0.93 for the second.

First: CCC(C)C(NC(=O)C(CCCN)NC(C)=O)C(=O)NC(C(N)=O)C(C)C (stereo not drawn) (Ac-[Orn]-Ile-Val-NH2; configuration not given here)
Second: CC(=O)NC(CC(C)C)C(=O)NC(CC(=O)O)C(=O)NC(CC(C)C)C(N)=O (stereo not drawn) (Ac-Leu-Asp-Leu-NH2; configuration not given here)
The logP of the first is lower: -0.43 for the first, 0.16 for the second.

Going from Cc1ccc(CN2CCNC2=C[N+](=O)[O-])cn1 to O=[N+]([O-])C=C1NCCN1Cc1ccc(Cl)cc1, the logP rises from -0.59 to 0.99.

First: C=CCn1cccn1
Second: C=CCN(C)N=Nc1ccccc1C(N)=O
The logP of the first is lower: 0.35 for the first, 2.91 for the second.

Going from CC(C)CNCCCS(=O)(=O)c1ccc(S(N)(=O)=O)s1 to CS(=O)(=O)N(c1ccccc1[N+](=O)[O-])S(C)(=O)=O, the logP rises from -0.35 to 0.81.

First: O=C(O)c1cc(Oc2cc(C(F)(F)F)ccc2Cl)ccc1[N+](=O)[O-]
Second: COc1ccc2cc(C(C)C(=O)OCC(=O)N(C)C)ccc2c1 (centres undefined)
The logP of the first is higher: 3.7 for the first, 2.05 for the second.

Compared with Cc1c(Cl)c(Cl)c(Cl)c(Cl)c1Cl, Clc1cc2c(cc1Cl)Oc1c(cc(Cl)c(Cl)c1Cl)O2 is higher in logP: 5.62 for the first, 6.64 for the second.

First: CC12CCC(=O)C=C1CCC1C2CCC2(C)C1CCC2(O)C(O)CO (centres undefined)
Second: CC(=O)C12OC(C)(c3ccc(F)cc3)OC1CC1C3CCC4=CC(=O)CCC4(C)C3CCC12C (centres undefined)
The logP of the first is lower: 2 for the first, 5.7 for the second.

Compared with COCCn1cnc2c(=O)[nH]c(Nc3ccccc3)nc21, O=c1[nH]c(Nc2ccccc2)nc2c1ncn2CCO is lower in logP: 1.2 for the first, 0.83 for the second.

CC(C)(C)C(=O)OCCOCn1cnc2c(=O)[nH]c(N)nc21 and CCCCC(=O)OCCOCn1cnc2c(=O)[nH]c(N)nc21 are within 0.2 log units of each other in logP: 0.3 for the first, 0.37 for the second.

Going from c1ccc(OCc2cccc(CN3CCCOC3)c2)cc1 to Cc1cccc(C)c1NC(=O)c1ccc(CN2CCCC2)cc1, the logP rises from 2.75 to 3.14.

First: CCOC(CC)(OCC)OCC
Second: CCCOC(=O)C(C(=O)OC)=C1SC=CS1
The logP of the first is lower: 1.97 for the first, 2.72 for the second.

First: O=S1(=O)NC(C2CC=CC2)=Nc2ccccc21
Second: Cc1ccccc1CO[C@H]1C[C@]2(C(C)C)CC[C@@]1(C)O2 (single isomer, unassigned)
The logP of the first is lower: 1.53 for the first, 4.62 for the second.

Compared with CCCCC(C#N)(Cn1cncn1)c1ccc(Cl)cc1 (centres undefined), N#CC(CCc1ccc(Cl)cc1)(Cn1cncn1)c1ccccc1 (centres undefined) is higher in logP: 2.94 for the first, 3.23 for the second.

Going from Cc1[nH]cnc1CSCCNC1=NC(=O)CN1 to CCCC(=O)OCn1ncc2c(=O)[nH]cnc21, the logP rises from -0.5 to 0.6.

First: Cc1cn(C2CC(N=[N+]=[N-])C(COC(=O)CNC(=O)C34CC5CC(CC(C5)C3)C4)O2)c(=O)[nH]c1=O (centres undefined)
Second: c1nnn(C23CC4CC(CC(C4)C2)C3)n1
The logP of the first is lower: 2.1 for the first, 2.95 for the second.

Compared with Clc1cc(Cl)c(-c2cc(Cl)c(Cl)c(Cl)c2)cc1Cl, C#CCON=CNc1cc(Cl)c(OCC#C)c(Cl)c1 is lower in logP: 7.5 for the first, 3.3 for the second.

First: O=C(Cn1c(=O)sc2ccc(Cl)cc21)N1CCN(CCOS(=O)(=O)O)CC1
Second: COCCN1CCc2cccc(Cl)c2CC1
The logP of the first is lower: -1.47 for the first, 3 for the second.

Compared with CC(=O)N[C@@H](Cc1c[nH]c2ccccc12)C(=O)N[C@@H](C)C(=O)N[C@@H](C)C(N)=O (Ac-Trp-Ala-Ala-NH2), CC(=O)OC1C(=O)C2(C)C(O)CC3OCC3(OC(C)=O)C2C(OC(=O)c2ccccc2)C2(O)CC(OC(=O)C(C)O)C(C)=C1C2(C)C (centres undefined) is higher in logP: -0.38 for the first, 1.52 for the second.

Compared with Nc1ncnc2c1nc(F)n2C1CCC(CO)O1 (centres undefined), CCC1COC(Cn2cncn2)(c2ccc(-n3cncn3)cc2Cl)O1 (centres undefined) is higher in logP: -0.03 for the first, 1.28 for the second.

Compared with CCCCCCCOc1cccc(NC(=O)OCCN2CCOCC2)c1, O=C(NN1CCCCC1)NS(=O)(=O)c1ccc(Cl)cc1 is lower in logP: 5.28 for the first, 0.84 for the second.

Compared with C=C1C(=O)OC2CC(C)C3C=CC(=O)C3(C)C(OC(=O)CCCC(=O)OC3C4C(=C)C(=O)OC4CC(C)C4C=CC(=O)C43C)C12 (centres undefined), COC1CC(OC2CCC3(C=O)C4CCC5(C)C(C6=CC(=O)OC6)CCC5(O)C4CCC3(O)C2)OCC1O (centres undefined) is lower in logP: 1.37 for the first, 0.64 for the second.

Going from CCSc1nc(NC(C)C)nc(NC(C)C)n1 to Cc1cc(=O)oc2cc(OC3OC(CO)C(O)C(O)C3O)ccc12 (centres undefined), the logP falls from 3.81 to -0.66.

N#CC(C#N)=NNc1ccccc1Cl showed a logP of 3.12.
